Data on one compound can be found in ChEMBL document CHEMBL4041506, “Urea-containing peptide boronic acids as potent proteasome inhibitors” (Eur J Med Chem, 2017).

Data set [1] is described as follows: Plasma concentration in Sprague-Dawley rat at 3 mg/kg, iv administered as bolus measured at […] by LC/MS/MS analysis. It counts as ADME, organism-based.
For data set [2], the system named is Mus musculus. In words: Toxicity in human Bel7404 cells xenografted BALB/c mouse assessed as effect on body weight at 1 mg/kg, iv administered once in two days for 24 consecutive days measured on day 17 of compound dosing (reference value: 26.29 +/- 1.03 g). The format is organism-based. The following applies: in vivo.
Data set [3] is described as follows: Plasma concentration in Sprague-Dawley rat at 3 mg/kg, iv administered as bolus measured at 0.5 hrs by LC/MS/MS analysis. The format is ADME, organism-based.
The subject of data set [4] is Mus musculus. In words: Toxicity in human Bel7404 cells xenografted BALB/c mouse assessed as effect on body weight at 2 mg/kg, iv administered once in two days for 24 consecutive days measured on day 6 of compound dosing (reference value: 25.65 +/- 0.7 g). It counts as organism-based. The conditions noted are these: in vivo.
In data set [5] the test system is BEL-7404 tumor cell line. In words: Antitumor activity against human Bel7404 cells xenografted in BALB/c nude mouse assessed as effect on tumor volume at 0.5 mg/kg, iv administered once in two days for 24 consecutive days measured on day 10 of compound dosing relative to control. The format is functional.
Data set [6] has as its system Mus musculus. Kind of data set: Toxicity in human Bel7404 cells xenografted BALB/c mouse assessed as effect on body weight at 2 mg/kg, iv administered once in two days for 24 consecutive days measured on day 17 of compound dosing (reference value: 26.29 +/- 1.03 g). The format is organism-based. The conditions noted are these: in vivo.
Data set [7] relates to BEL-7404 tumor cell line. In words: Antitumor activity against human Bel7404 cells xenografted in BALB/c nude mouse assessed as effect on tumor volume at 1 mg/kg, iv administered once in two days for 24 consecutive days measured on day 10 of compound dosing relative to control. It counts as functional.
In data set [8] the test system is BEL-7404 tumor cell line. In words: Antitumor activity against human Bel7404 cells xenografted in BALB/c nude mouse assessed as effect on tumor volume at 2 mg/kg, iv administered once in two days for 24 consecutive days measured on day 13 of compound dosing relative to control. The format is functional.
A short description of data set [9]: AUClast in Sprague-Dawley rat plasma at 3 mg/kg, iv administered as bolus after 24 hrs by LC/MS/MS analysis. The format is ADME, organism-based. Further details: dose 3 mg/kg, time < 24 hr, route intravenous.
Data set [10] has as its system Mus musculus. In words: Toxicity in human Bel7404 cells xenografted BALB/c mouse assessed as effect on body weight at 1 mg/kg, iv administered once in two days for 24 consecutive days measured on day 3 of compound dosing (reference value: 25.39 +/- 1 g). The format is organism-based. The following applies: in vivo.

As to `CC(C)C[C@H](NC(=O)[C@H](Cc1ccccc1)NC(=O)N1CCc2ccccc2C1)B(O)O`, the concentration at […] in data set [1] worked out at 715 ng/mL. The Activity in the data set with Mus musculus [2] is 24.77 g; in the data set on Mus musculus [4] it was 24.97 g; with Mus musculus [6], 22.23 g; in the data set on Mus musculus [10], 25.12 g. The concentration at 0.5 h in data set [3] was found to be 373 ng/mL. Further, the “fold change (FC)” value is recorded as 2.6 in the data set with BEL-7404 tumor cell line [5], 2.29 in the data set on BEL-7404 tumor cell line [7] and 2.64 with BEL-7404 tumor cell line [8]. The compound further yielded an AUC(0-t) at 24 h in data set [9] of 878 ng·h/mL.
